pIC50: −log10 of the molar value.

The target of the test is HCV NS3-4A serine protease (full-length NS3-4A protein) (Hepatitis C virus genotype 1a (isolate 1) (HCV), UniProt P26664). Description: HCV NS3-4A protease assay. It is filed as biochemical, HCV genotype 1a. The note with it: strain HCV-1, fluorogenic peptide substrate, read-out: Protease assay Ex. 12 IC50. How it is done: The inhibitory activity of certain compounds of Table A against HCV NS3-4A serine protease is determined in a homogenous assay using the full-length NS3-4A protein (genotype 1a, strain HCV-1) and a commercially available internally-quenched fluorogenic peptide substrate as described by Taliani, M., et al. 1996 Anal. Biochem. 240:60-67, which is incorporated by reference in its entirety.
Sequence of HCV NS3-4A serine protease (full-length NS3-4A protein) (P26664 1027-1657): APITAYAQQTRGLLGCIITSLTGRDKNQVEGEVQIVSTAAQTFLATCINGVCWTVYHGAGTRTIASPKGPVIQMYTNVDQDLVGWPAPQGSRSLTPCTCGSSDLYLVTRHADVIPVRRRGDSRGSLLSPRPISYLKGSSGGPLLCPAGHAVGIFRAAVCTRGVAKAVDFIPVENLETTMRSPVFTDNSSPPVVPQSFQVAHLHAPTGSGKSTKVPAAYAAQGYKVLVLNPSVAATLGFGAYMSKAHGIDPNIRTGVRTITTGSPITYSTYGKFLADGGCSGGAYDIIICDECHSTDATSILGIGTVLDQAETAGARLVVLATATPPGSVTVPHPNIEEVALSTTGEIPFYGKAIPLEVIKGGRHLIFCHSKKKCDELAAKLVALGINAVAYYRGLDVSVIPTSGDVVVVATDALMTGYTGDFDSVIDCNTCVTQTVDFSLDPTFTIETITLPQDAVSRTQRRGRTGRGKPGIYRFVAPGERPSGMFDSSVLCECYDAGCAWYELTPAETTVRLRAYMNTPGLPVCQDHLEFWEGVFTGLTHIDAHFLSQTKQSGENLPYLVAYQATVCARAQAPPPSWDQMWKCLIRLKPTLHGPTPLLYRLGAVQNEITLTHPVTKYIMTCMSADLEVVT
Sequence of HCV NS3-4A serine protease (full-length NS3-4A protein) (P26664 1658-1711 partner): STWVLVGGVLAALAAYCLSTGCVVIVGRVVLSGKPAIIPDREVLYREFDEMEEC
As for `C=C[C@@H]1C[C@]1(NC(=O)[C@@H]1C[C@@]2(CN1C(=O)[C@@H](NC(=O)[C@@H](NC(=O)[C@@H]1CCCCN1CCF)C1CCCCC1)C1CCOCC1)C(C)(C)C21CCC1)C(=O)NS(=O)(=O)N1CCCC1` [Compound 75, (5R,8S)-7-[(2S)-2-{[(2S)-2-cyclohexyl-2-({[(2S)-1-(2-fluoroethyl)piperidin-2-yl]carbonyl}amino)acetyl]amino}-2-(tetrahydro-2H-pyran-4-yl)acetyl]-10,10-dimethyl-N-{(1R,2S)-1-[(pyrrolidin-1-ylsulfonyl)carbamoyl]-2-vinylcyclopropyl}-7-azadispiro[3.0.4.1]decane-8-carboxamide], the pIC50 is 7.52.

Take `C=C[C@@H]1C[C@]1(NC(=O)[C@@H]1C[C@@]2(CN1C(=O)[C@@H](NC(=O)[C@@H](NC(=O)[C@@H]1CCCN1C(=O)OCCF)C1CCCCC1)C1CCOCC1)C(C)(C)C21CCC1)C(=O)NS(=O)(=O)N1CCCC1` [Compound 76, 2-fluoroethyl(2S)-2-{[(1S)-1-cyclohexyl-2-{[(1S)-2-[(5R,8S)-10,10-dimethyl-8-({(1R,2S)-1-[(pyrrolidin-1-ylsulfonyl)carbamoyl]-2-vinylcyclopropyl}carbamoyl)-7-azadispiro[3.0.4.1]dec-7-yl]-2-oxo-1-(tetrahydro-2H-pyran-4-yl)ethyl]amino}-2-oxoethyl]carbamoyl}pyrrolidine-1-carboxylate]: the pIC50 was 7.10.

With `C=C[C@@H]1C[C@]1(NC(=O)[C@@H]1C[C@@]2(CN1C(=O)[C@@H](NC(=O)[C@@H](NC(=O)[C@@H]1CCCCN1CC)C1CCCCC1)C(C)(C)C)C(C)(C)C21CCC1)C(=O)NS(=O)(=O)N(CC)CC` [Compound 77, (5R,8S)-7-[(2S)-2-{[(2S)-2-cyclohexyl-2-({[(2S)-1-ethylpiperidin-2-yl]carbonyl}amino)acetyl]amino}-3,3-dimethylbutanoyl]-N-[(1R,2S)-1-{[(diethylamino)sulfonyl]carbamoyl}-2-vinylcyclopropyl]-10,10-dimethyl-7-azadispiro[3.0.4.1]decane-8-carboxamide], the pIC50 was 9.05.

As for `C=C[C@@H]1C[C@]1(NC(=O)C1C[C@@]2(CN1C(=O)[C@@H](NC(=O)C1CCCNC1=O)C(C)(C)C)C(C)(C)C21CCC1)C(=O)NS(=O)(=O)N1CCCC1` (stereo partly drawn) [Compound 78, (5R)-7-[(2S)-3,3-dimethyl-2-{[(2-oxopiperidin-3-yl)carbonyl]amino}butanoyl]-10,10-dimethyl-N-{(1R,2S)-1-[(pyrrolidin-1-ylsulfonyl)carbamoyl]-2-vinylcyclopropyl}-7-azadispiro[3.0.4.1]decane-8-carboxamide], the pIC50 is 6.19.

For the compound `C=C[C@@H]1C[C@]1(NC(=O)[C@@H]1C[C@@]2(CN1C(=O)[C@@H](NC(=O)[C@@H](NC(=O)[C@@H]1CCCCN1CC)C1CCCC1)C(C)(C)C)C(C)(C)C21CCC1)C(=O)NS(=O)(=O)N(CC)CC` [Compound 81, (5R,8S)-7-[(2S)-2-{[(2S)-2-cyclopentyl-2-({[(2S)-1-ethylpiperidin-2-yl]carbonyl}amino)acetyl]amino}-3,3-dimethylbutanoyl]-N-[(1R,2S)-1-{[(diethylamino)sulfonyl]carbamoyl}-2-vinylcyclopropyl]-10,10-dimethyl-7-azadispiro[3.0.4.1]decane-8-carboxamide], the pIC50 was 8.40.

`C=C[C@@H]1C[C@]1(NC(=O)[C@@H]1C[C@@]2(CN1C(=O)[C@@H](NC(=O)[C@@H](NC(=O)[C@@H]1CCCCN1C(C)C)C1CCCCC1)C(C)(C)C)C(C)(C)C21CCC1)C(=O)NS(=O)(=O)N(C)CC(F)F` [Compound 83, (5R,8S)-7-[(2S)-2-{[(2S)-2-cyclohexyl-2-({[(2S)-1-isopropylpiperidin-2-yl]carbonyl}amino)acetyl]amino}-3,3-dimethylbutanoyl]-N-[(1R,2S)-1-({[(2,2-difluoroethyl)(methyl)amino]sulfonyl}carbamoyl)-2-vinylcyclopropyl]-10,10-dimethyl-7-azadispiro[3.0.4.1]decane-8-carboxamide]: the pIC50 was 8.70.

Broadly, the pIC50 is the negative decadic logarithm of the IC50, by convention in mol/L.

These data come from US8613914B2, “Peptidomimetic sulfamide compounds and antiviral uses thereof” (Novartis AG, priority 2009, dated 2013).
